In brackets after ≈: the same amount, converted by molar mass.
Experiments:
[1] = Toxicity in the mouse (LD50); settings: in vivo, ip, read-out: Toxicity (LD50-range or LD50)
Experimental: The toxicity was determined as LD50 --range or as LD50 according to Litchfield and Wilcoxon ("J. Pharmacol. exp. Ther." 97 (1949), page 399) in the mouse.

[2] = system: bronchospasm against histamine; experiment: Broncholytic effect at the narcotized guinea-pig, bronchospasm by histamine; type: in vivo; settings: for change in vivo at 3 mg/kg / change in vivo at 10 mg/kg: Cavia porcellus, iv, 2 min, 2 min. i.p.; for change in vivo at 3 mg/kg: 3 mg/kg i.v.; for change in vivo at 10 mg/kg: 10 mg/kg i.v.; for Broncholytic effect against histamine compared with sample 8: guinea pig, in vivo
Experimental: (§1) 2. Broncholytic effect at the narcotized guinea-pig
(§2) This test was performed according to H. Konsett and R. Rossler ("Archiv exp. Path. Pharmak." vol. 195 (1940), page 71).

[3] = system: muscular blood perfusion; experiment: Muscular blood perfusion by fluvography at the cat (i.v.); type: in vivo
Experimental: (§3) Animal tests were carried out with various oxoalkylxanthine derivatives, in which the toxicity in the mouse, the increase of cerebral and muscular blood perfusion at the cat and the fibrinolytic effect in vitro in the Hanging-Clot-test were measured. Furthermore the broncholytic effect of various compounds was tested.
(§4) 1. Cerebral and muscular blood perfusion by fluvography
(§5) These tests were performed at the cat according to K. Popendiker, I. Boksay and V. Bollmann ("Arzneimittel Forschung" vol. 21 (1971), page 1160).
(§6) The values obtained in the mentioned test 1 are given as Δλ and as half-life values in Table 2 and the results of tests 2 to 5 are enumerated in Table 3. In Table 2 Δλ is the change of blood perfusion.

[4] = system: cerebral blood perfusion; experiment: Cerebral blood perfusion by fluvography at the cat (i.v.); type: in vivo
Experimental: as §3, §4, §5, §6

[5] = system: bronchospasm against acetylcholine; experiment: Broncholytic effect at the narcotized guinea-pig, bronchospasm by acetylcholine; type: in vivo; settings: Cavia porcellus, iv, 2 min, 2 min. i.p.; for change in vivo at 10 mg/kg: 10 mg/kg i.v.; for change in vivo at 3 mg/kg: 3 mg/kg i.v.
Experimental: as §1, §2

[6] = system: bronchospasm against acrotonine; experiment: Broncholytic effect at the narcotized guinea-pig, bronchospasm by acrotonine (so in the source); type: in vivo; settings: 2 min. i.p.
Experimental: as §1, §2

[7] = Solubility; type: physicochemical
[8] = system: human blood; experiment: Fibrinolytic effect in vitro, Hanging-Clot-test; type: biochemical
Experimental: This effect was measured by the Hanging-Clot-test according to K. N. von Kaulla ("Journ. med. Chem." vol. 8 (1965), page 164) in using human blood. The incubation time was 24 or 48 hours.

[9] = 2 mg/kg i.v. vs sample 8 at 5 mg/kg
[10] = human blood, 24 hours incubation
[11] = human blood, 48 hours incubation (bracket)

CCCCCCn1c(=O)c2c(ncn2CCCCC(C)=O)n(C)c1=O [Sample 3, I-(n-hexyl)-3-methyl-7-(5-oxohexyl)-xanthine]
LD50 [1]: 250 to 500 mg/kg
change in vivo at 3 mg/kg [2]: -52%
change in vivo at 10 mg/kg [2]: -90%
Broncholytic effect against histamine compared with sample 8 [2]: improved broncholytic effect against histamine
Muscular blood perfusion half-life ([3]; 1 mg/kg i.v.): 3.30 min
Muscular blood perfusion Δλ (change of blood perfusion) ([3]; 1 mg/kg i.v.): -0.05
Muscular blood perfusion Δλ (change of blood perfusion) ([3]; 2 mg/kg i.v.): 0
Cerebral blood perfusion half-life ([4]; 1 mg/kg i.v.): 0.4 min
Cerebral blood perfusion Δλ (change of blood perfusion) ([4]; 1 mg/kg i.v.): +0.97
Cerebral blood perfusion half-life ([4]; 2 mg/kg i.v.): 7.0 min
Cerebral blood perfusion Δλ (change of blood perfusion) ([4]; 2 mg/kg i.v.): +1.45
Cerebral blood perfusion relative to comparison sample 8 [4, 9]: about two times as strong
Half-life (cerebral) relative to comparison sample 8 [4, 9]: about three times as long
change in vivo at 10 mg/kg [5]: -85%
Change of the bronchospasm in % against acrotonine ([6]; 3 mg/kg i.v.): -50%
Change of the bronchospasm in % against acrotonine ([6]; 10 mg/kg i.v.): -100%

CC(=O)CCCCn1cnc2c1c(=O)n(CC(C)C)c(=O)n2C [Sample 2, 1-isobutyl-3-methyl-7-(5-oxohexyl)-xanthine]
LD50 [1]: 250 to 500 mg/kg
change in vivo at 3 mg/kg [2]: -80%
change in vivo at 10 mg/kg [2]: -73%
Muscular blood perfusion Δλ (change of blood perfusion) ([3]; 1 mg/kg i.v.): 0
Muscular blood perfusion half-life ([3]; 5 mg/kg i.v.): 0.60 min
Muscular blood perfusion Δλ (change of blood perfusion) ([3]; 5 mg/kg i.v.): +0.05
Cerebral blood perfusion half-life ([4]; 1 mg/kg i.v.): 1.0 min
Cerebral blood perfusion Δλ (change of blood perfusion) ([4]; 1 mg/kg i.v.): +1.85
Cerebral blood perfusion half-life ([4]; 5 mg/kg i.v.): 14.3 min
Cerebral blood perfusion relative to comparison sample 8 ([4]; 5 mg/kg i.v.): about four times stronger
Cerebral blood perfusion Δλ (change of blood perfusion) ([4]; 5 mg/kg i.v.): +3.45
Half-life (cerebral) relative to comparison sample 8 ([4]; 5 mg/kg i.v.): more than five times longer
Cerebral blood perfusion compared with sample 8 (in words) ([4]; i.v.): stronger and longer cerebral blood perfusion
change in vivo at 10 mg/kg [5]: -29%
Change of the bronchospasm in % against acrotonine ([6]; 3 mg/kg i.v.): -20%
Change of the bronchospasm in % against acrotonine ([6]; 10 mg/kg i.v.): -47%

CCn1cnc2c1c(=O)n(CCCCC(C)=O)c(=O)n2C [Sample 7, 1-(5-oxohexyl)-3-methyl-7-ethyl-xanthine]
solubility ([7]; water, 25° C.): ~20 mg/mL (≈ 68.4 mM)
LD50 [1]: 250 to 500 mg/kg
change in vivo at 3 mg/kg [2]: -47%
change in vivo at 10 mg/kg [2]: -90%
Broncholytic effect against histamine compared with sample 8 [2]: improved broncholytic effect against histamine
Fibrinolytic effect relative to comparison sample 8 [8]: two times as strong
Minimum concentration for partial lysis [8, 10]: 50 mmol
Minimum concentration for partial lysis [8, 11]: 25 mmol
Muscular blood perfusion half-life ([3]; 1 mg/kg i.v.): 0.40 min
Muscular blood perfusion Δλ (change of blood perfusion) ([3]; 1 mg/kg i.v.): +0.22
Muscular blood perfusion half-life ([3]; 2 mg/kg i.v.): 5.00 min
Muscular blood perfusion Δλ (change of blood perfusion) ([3]; 2 mg/kg i.v.): +0.10
Muscular blood perfusion half-life ([3]; 5 mg/kg i.v.): 0.50 min
Muscular blood perfusion Δλ (change of blood perfusion) ([3]; 5 mg/kg i.v.): +0.20
Cerebral blood perfusion half-life ([4]; 1 mg/kg i.v.): 1.5 min
Cerebral blood perfusion relative to comparison sample 8 ([4]; 1 mg/kg i.v.): about five times higher
Cerebral blood perfusion Δλ (change of blood perfusion) ([4]; 1 mg/kg i.v.): +2.46
Half-life (cerebral) relative to comparison sample 8 ([4]; 1 mg/kg i.v.): 1.5 times
Cerebral blood perfusion half-life ([4]; 2 mg/kg i.v.): 5.0 min
Cerebral blood perfusion Δλ (change of blood perfusion) ([4]; 2 mg/kg i.v.): +5.17
Cerebral blood perfusion half-life ([4]; 5 mg/kg i.v.): 8.2 min
Cerebral blood perfusion relative to comparison sample 8 ([4]; 5 mg/kg i.v.): about nine times higher
Cerebral blood perfusion Δλ (change of blood perfusion) ([4]; 5 mg/kg i.v.): +8.07
Half-life (cerebral) relative to comparison sample 8 ([4]; 5 mg/kg i.v.): more than three times longer
change in vivo at 3 mg/kg [5]: -28%
change in vivo at 10 mg/kg [5]: -96%
Change of the bronchospasm in % against acrotonine ([6]; 3 mg/kg i.v.): -42%
Change of the bronchospasm in % against acrotonine ([6]; 10 mg/kg i.v.): -81%

CCCn1c(=O)c2c(ncn2CCCCC(C)=O)n(C)c1=O [Sample 1, 1-n-Propyl-3-methyl-7-(5-oxohexyl)-xanthine]
Solubility in dimethyl sulphoxide [7]: over 10%
Solubility in dimethylformamide [7]: over 10%
Solubility in ethanol [7]: over 10%
LD50 [1]: 100 to 250 mg/kg
change in vivo at 3 mg/kg ([2]; sample in propanediol): -63%
change in vivo at 10 mg/kg ([2]; sample in propanediol): -73%
Fibrinolytic effect relative to comparison sample 8 [8]: two times as strong
Minimum concentration for partial lysis [8, 10]: 40 mmol
Minimum concentration for complete lysis [8, 11]: 20 mmol
change in vivo at 3 mg/kg ([5]; sample in propanediol): -33%
change in vivo at 10 mg/kg ([5]; sample in propanediol): -55%
Change of the bronchospasm in % against acrotonine ([6]; 3 mg/kg i.v., sample in propanediol): -40%
Change of the bronchospasm in % against acrotonine ([6]; 10 mg/kg i.v., sample in propanediol, sample 1: Longtime effect (footnote 1)): -82%

CC(=O)CCCCn1c(=O)c2c(ncn2CC(C)C)n(C)c1=O [Example 3, 1-(5-oxohexyl)-3-methyl7-isobutyl-xanthine]
Solubility in dimethyl sulphoxide [7]: over 10%
Solubility in dimethylformamide [7]: over 10%
Solubility in ethanol [7]: over 10%

Reference: patent US4289776A, “Xanthine derivatives” (Hoechst Aktiengesellschaft, priority 1973, dated 1981)
